Test results reported in BindingDB's records for patent US11897898 (Biogen Ma, 2024).

Biological target: T1, Mitogen-activated protein kinase kinase kinase 5 (Homo sapiens, UniProt Q99683)
T1 sequence (Q99683 whole entry): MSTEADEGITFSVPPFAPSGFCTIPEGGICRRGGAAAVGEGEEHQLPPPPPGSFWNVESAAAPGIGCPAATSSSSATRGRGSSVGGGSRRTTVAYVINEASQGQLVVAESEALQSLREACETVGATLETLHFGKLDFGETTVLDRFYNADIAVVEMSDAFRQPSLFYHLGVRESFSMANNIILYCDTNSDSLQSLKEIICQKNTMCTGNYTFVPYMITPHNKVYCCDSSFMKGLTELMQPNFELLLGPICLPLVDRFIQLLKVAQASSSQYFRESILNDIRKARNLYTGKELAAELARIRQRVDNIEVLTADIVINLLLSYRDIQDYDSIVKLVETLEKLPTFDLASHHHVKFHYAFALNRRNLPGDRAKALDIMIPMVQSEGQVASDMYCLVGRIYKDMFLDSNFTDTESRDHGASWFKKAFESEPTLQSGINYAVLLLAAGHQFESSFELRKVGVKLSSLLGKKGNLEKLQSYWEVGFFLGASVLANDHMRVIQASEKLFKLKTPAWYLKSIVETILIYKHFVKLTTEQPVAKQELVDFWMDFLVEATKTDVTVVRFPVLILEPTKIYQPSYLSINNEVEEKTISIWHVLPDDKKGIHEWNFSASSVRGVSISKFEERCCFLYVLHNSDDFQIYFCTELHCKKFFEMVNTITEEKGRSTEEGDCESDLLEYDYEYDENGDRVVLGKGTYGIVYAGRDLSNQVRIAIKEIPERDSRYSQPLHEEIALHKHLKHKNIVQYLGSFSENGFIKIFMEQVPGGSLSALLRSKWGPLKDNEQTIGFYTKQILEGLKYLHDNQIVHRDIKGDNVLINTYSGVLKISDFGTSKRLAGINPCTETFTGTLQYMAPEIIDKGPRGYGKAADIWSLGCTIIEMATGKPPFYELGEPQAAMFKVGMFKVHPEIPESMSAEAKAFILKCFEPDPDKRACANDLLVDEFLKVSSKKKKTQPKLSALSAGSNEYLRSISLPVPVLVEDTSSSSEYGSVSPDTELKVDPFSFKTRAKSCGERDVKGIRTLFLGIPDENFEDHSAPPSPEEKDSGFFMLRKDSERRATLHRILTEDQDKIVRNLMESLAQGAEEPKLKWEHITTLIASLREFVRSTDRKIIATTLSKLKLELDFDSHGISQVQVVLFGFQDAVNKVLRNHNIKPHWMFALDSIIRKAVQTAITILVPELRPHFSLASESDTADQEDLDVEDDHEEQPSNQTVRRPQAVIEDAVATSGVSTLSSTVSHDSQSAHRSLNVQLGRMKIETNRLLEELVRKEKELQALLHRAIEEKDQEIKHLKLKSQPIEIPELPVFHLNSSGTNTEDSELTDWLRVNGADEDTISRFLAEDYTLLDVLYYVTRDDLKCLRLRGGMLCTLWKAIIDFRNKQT
Test: ASK1 Enzyme Assay
Method: The protein kinase inhibitory activity of the compounds described herein were tested using the ASK1/MAP3K5 assay by Reaction Biology Corp. (Malvern, Pa.). The assay procedure follows (and is also available on the Reaction Biology Corp. website).Base Reaction Buffer: 20 mM Hepes (pH 7.5), 10 mM MgCl2, 1 mM EGTA,0.02% Brij35, 0.02 mg/mL BSA, 0.1 mM Na3VO4, 2 mM DTT, 1% DMSO;Substrate: 20 μM of myelin basic protein (MBP) and 10 μM ATP;Protein kinase: ASK1/MAP3K5.Reaction Procedure:1. Prepare indicated substrate in freshly prepared Base Reaction Buffer.2. Deliver any required cofactors to the substrate solution.3. Deliver indicated kinase into the substrate solution and gently mix.4. Deliver compounds in DMSO into the kinase reaction mixture by Acoustic; technology (Echo550; nanoliter range), incubate for 20 minutes at room temperature.5. Deliver 33P-ATP (specific activity 10 μCi/μL) into the reaction mixture to initiate the reaction.6. Incubate kinase reaction for 2 hours at room temperature.7. Reactions are spotted onto P81 ion exchange paper.8. Detect kinase activity by filter-binding method.

Row | IC50 | Structure (SMILES)
1 | in the range around 550 nM | C[C@@H]1CCCOc2ncc(-c3ccncc3)cc2C(=O)Nc2cccc(n2)-c2nncn21 [US11897898, Example 18]
2 | in the range around 550 nM | C[C@@H]1CCCOc2ncc(N3CCOCC3)cc2C(=O)Nc2cccc(n2)-c2nncn21 [US11897898, Example 6]
